Measurements from US20240270821A1, “GIP/GLP1/GCG TRI-RECEPTOR AGONISTS AND USES THEREOF” (priority 2023, published 2024).
Read-outs that look alike come from different tables or passages of the source. Starred links: 1 amine or outer side, 2 acyl side, 3 side chain; linkers in the order of their positions; H or OH if unused. Non-standard residues stand in square brackets, D forms with d. Groups on a side chain read outwards from the residue. *: point of attachment. C18 diacid = O=C(O)CCCCCCCCCCCCCCCCC(=O)*; αMePhe(2-F) = C[C@](N)(Cc1ccccc1F)C(=O)O; γGlu = O=C(O)[C@H](CCC(=O)[*:2])N[*:1]; αMe4Pal = C[C@](N)(Cc1ccncc1)C(=O)O; αMeY = C[C@](N)(Cc1ccc(O)cc1)C(=O)O; 4Pal = N[C@@H](Cc1ccncc1)C(=O)O; αMeL = CC(C)C[C@](C)(N)C(=O)O; αMeS = C[C@](N)(CO)C(=O)O; Orn = NCCC[C@H](N)C(=O)O; AEEA = NCCOCCOCC(=O)O; Aib = CC(C)(N)C(=O)O

Tests used:
Format in all cases: cell-based
[1] = molecular target: T1, hGIPR (Homo sapiens, UniProt P48546); assay: Functional cAMP activity in the presence of 1% HSA; conditions: read-out: cAMP Rel EC50, hGIPR
T1 sequence (P48546 22-466): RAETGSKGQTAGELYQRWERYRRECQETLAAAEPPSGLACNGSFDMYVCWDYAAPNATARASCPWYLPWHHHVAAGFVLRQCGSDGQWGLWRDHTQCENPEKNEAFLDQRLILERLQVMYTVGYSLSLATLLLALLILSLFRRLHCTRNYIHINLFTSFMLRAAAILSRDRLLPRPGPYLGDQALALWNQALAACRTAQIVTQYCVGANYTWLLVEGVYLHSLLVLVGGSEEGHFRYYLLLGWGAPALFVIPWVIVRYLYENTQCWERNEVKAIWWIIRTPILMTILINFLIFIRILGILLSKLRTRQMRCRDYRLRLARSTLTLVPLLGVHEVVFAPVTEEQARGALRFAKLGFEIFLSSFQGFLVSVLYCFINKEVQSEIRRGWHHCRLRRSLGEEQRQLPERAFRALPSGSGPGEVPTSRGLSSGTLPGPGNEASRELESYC

[2] = molecular target: T2, hGLP-1R (Homo sapiens, UniProt P43220); assay: Functional cAMP activity in the presence of 1% HSA; conditions: read-out: cAMP Rel EC50, hGLP-1R
T2 sequence (P43220 24-463): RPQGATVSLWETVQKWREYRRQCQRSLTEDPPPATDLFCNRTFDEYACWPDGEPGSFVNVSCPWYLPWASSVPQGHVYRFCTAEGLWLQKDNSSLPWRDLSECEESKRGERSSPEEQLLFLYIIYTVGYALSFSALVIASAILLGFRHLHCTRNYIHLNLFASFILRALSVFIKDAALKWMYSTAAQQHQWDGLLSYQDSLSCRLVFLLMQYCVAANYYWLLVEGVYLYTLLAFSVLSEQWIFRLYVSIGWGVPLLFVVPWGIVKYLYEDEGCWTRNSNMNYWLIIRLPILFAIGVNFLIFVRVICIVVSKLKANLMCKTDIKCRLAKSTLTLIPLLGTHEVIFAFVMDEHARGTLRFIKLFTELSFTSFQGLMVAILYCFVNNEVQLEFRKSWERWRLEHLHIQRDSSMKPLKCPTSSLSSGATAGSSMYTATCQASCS

[3] = molecular target: human GcgR (Homo sapiens, UniProt P47871); assay: Functional cAMP activity in the presence of 1% HSA; conditions: read-out: cAMP Rel EC50, hGcgR
human GcgR, sequence (P47871 26-477): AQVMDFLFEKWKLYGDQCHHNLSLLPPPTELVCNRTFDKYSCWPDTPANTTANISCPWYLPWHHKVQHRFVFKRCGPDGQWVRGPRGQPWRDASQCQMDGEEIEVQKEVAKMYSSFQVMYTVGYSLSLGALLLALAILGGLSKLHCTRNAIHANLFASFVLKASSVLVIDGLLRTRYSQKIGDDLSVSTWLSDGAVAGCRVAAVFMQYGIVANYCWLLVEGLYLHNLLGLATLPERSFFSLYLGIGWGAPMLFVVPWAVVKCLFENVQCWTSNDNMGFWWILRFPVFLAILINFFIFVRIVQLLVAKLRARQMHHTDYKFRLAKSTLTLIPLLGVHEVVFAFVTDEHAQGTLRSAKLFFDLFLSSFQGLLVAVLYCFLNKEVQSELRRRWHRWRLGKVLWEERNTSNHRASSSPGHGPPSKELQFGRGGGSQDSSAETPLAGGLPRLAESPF

[4] = molecular target: T1, hGIPR; assay: Functional cAMP activation in the presence of 0.1% casein (no HSA); conditions: read-out: Relative cAMP EC50, hGIPR;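 as to Relative cAMP EC50, hGIPR: intracellular cAMP rise after 30 min at 37 °C read by HTRF against a standard curve, scaled between buffer alone (0%) and top control ligand concentration (100%), four-parameter fit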;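 as to Relative cAMP EC50, hGLP-1R: intracellular cAMP rise after 30 min at 37 °C read by HTRF, normalized between buffer only (0%) and maximal control ligand (100%), four-parameter variable-slope fit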;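 as to Relative cAMP EC50, hGcgR: intracellular cAMP rise after 30 min at 37 °C, read by HTRF against a cAMP standard curve, scaled from buffer only (0%) to maximal control ligand response (100%)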
[5] = molecular target: T2, hGLP-1R; assay: as above; conditions: read-out: Relative cAMP EC50, hGLP-1R
[6] = molecular target: hGcgR (Homo sapiens, UniProt P47871); assay: as above; conditions: read-out: Relative cAMP EC50, hGcgR;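 also: intracellular cAMP rise after 30 min at 37 °C, read by HTRF against a cAMP standard curve, scaled from buffer only (0%) to maximal control ligand response (100%)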
hGcgR, sequence (P47871 26-477): as above

[7] = in the presence of 0.1% casein (no HSA), geometric mean
[8] = HEK-293 clonal cell line, 1% HSA, geometric mean of relative EC50
[9] = in the presence of 0.1% casein (no HSA), geometric mean of relative EC50

Row | Substance | EC50 [1] [nM] | EC50 [2] [nM] | EC50 [3] [nM] | EC50 [4, 7] [nM] | EC50 [5, 7] [nM] | EC50 [6, 7] [nM] | also measured
1 | H-Y[Aib]QGTFTSD[4Pal]SQ[αMeL]LDKK([AEEA-γGlu-C18 diacid])AQ[αMe4Pal]AFIEYLIE[Aib]GPSSGAPPPSGT-NH2 [Example 834] | 15.7 | 208 | 533 | 0.094 | 2.64 | 3.36 | –
2 | H-Y[Aib]QGT[αMePhe(2-F)]TSD[4Pal]SI[αMeL]LD[Orn]K([γGlu-γGlu-C18 diacid])AQ[αMe4Pal][Orn]FI[dE][αMeY]LIEGGPSSGEPPPEEG-NH2 [Example 681] | 0.395 | 14.2 | 104 | – | – | – | EC50 [4]: 0.00663 nM; EC50 [5]: 0.257 nM; EC50 [6]: 1.35 nM
3 | H-Y[Aib]QGT[αMePhe(2-F)]TSD[4Pal][αMeS]I[αMeL]LD[Orn]K([γGlu-γGlu-C18 diacid])AQ[Aib][Orn]FI[dE][αMeY]LQEGGPSSGEPPPEGEEE-NH2 [Example 588] | 2.86 | 34.1 | 259 | – | – | – | EC50 [4]: 0.0777 nM; EC50 [5]: 0.613 nM; EC50 [6]: 4.72 nM
4 | H-Y[Aib]QGTFTSD[4Pal]S[Orn][αMeL]LD[Orn]K([dE-γGlu-C18 diacid])AQ[αMe4Pal]AFIEYLIAGGPSSGAPPPSGSEE-NH2 [Example 1063] | 26.6 | 626 | 2290 | 0.318 | 6.96 | 10.6 | –
5 | H-Y[Aib]QGT[αMePhe(2-F)]TSDYSK[αMeL]LDKK([AEEA-γGlu-C18 diacid])AQ[Aib]QFIEYLEEGGPSSGEPPPSEG-NH2 [Example 292] | – | – | – | 1.02 | 1.03 | 1.84 | EC50 ([1]; HEK-293 clonal cells expressing hGIPR, in the presence of 1% HSA, geometric mean of relative EC50): 92.7 nM; EC50 ([2]; HEK-293 clonal cells expressing hGLP-1R, in the presence of 1% HSA, geometric mean of relative EC50): 129 nM; EC50 ([3]; HEK-293 clonal cells expressing hGcgR, in the presence of 1% HSA, geometric mean of relative EC50): 583 nM
6 | H-Y[Aib]QGTFTSD[4Pal]SK[αMeL]LDKK([AEEA-γGlu-C18 diacid])AQ[αMe4Pal]AFIEYLIE[Aib]GPSSGAPPPSGS-NH2 [Example 915] | 15.3 | 226 | 174 | 0.0988 | 1.5 | 0.882 | –
7 | H-Y[Aib]QGTFTSD[4Pal]SQ[αMeL]LD[Orn]K([Glu-γGlu-C18 diacid])AQ[αMe4Pal]AFIQ[αMeY]LIEGGPSSGAPPPSGSEEE-NH2 [Example 1077] | 27.8 | 408 | 3160 | 0.23 | 1.48 | 18.8 | –
8 | H-Y[Aib]QGTFTSD[4Pal]S[Orn][αMeL]LD[Orn]K([γGlu-γGlu-C18 diacid])AQ[αMe4Pal]EFIE[αMeY]LLEGGPSSGAPPPSGSEE-NH2 [Example 976] | 82.7 | 2860 | 848 | 0.441 | 21.8 | 8.75 | –
9 | H-Y[Aib]QGT[αMePhe(2-F)]TSD[4Pal]SI[αMeL]LDKK([γGlu-γGlu-C18 diacid])AQ[Aib][Orn]FIEYLAEGGPSSGEPPPSGSEE-NH2 [Example 636] | – | – | – | – | – | – | EC50 [1, 8]: 4.3 nM; EC50 [2, 8]: 36.6 nM; EC50 [3, 8]: 935 nM; EC50 [4, 9]: 0.054 nM; EC50 [5, 9]: 0.504 nM; EC50 [6, 9]: 9.28 nM
